Source: patent publication US10647732B2, “N-annulated perylene diimide dimers with active pyrrolic N—H bonds” (UTI Limited Partnership, priority 2018, dated 2020)
Values after ≈ are worked out from the molar mass of the structure shown.

Tests used:
[1] = Thermal stability by TGA and DSC; type: physicochemical
Protocol: Decomposition occurred above 390° C. as determined by thermal gravimetric analysis (TGA, FIG. 4A) and no phase transitions were observed up to 350° C. as determined by differential scanning calorimetry (DSC) (see FIG. 5A). This stability is similar to that of compound 5. TGA of compound 4 is illustrated in FIG. 4B. The TGA were run under N2 at 2° C. per min.
The impact of thermal annealing on the thin-film optical absorption profile is an important factor for use of such dimers. The BOC functionalized derivative 4 was synthesized at least in part to enable facile solution processing of the PDI dimer and generation of 3 in the solid film through thermal deprotection after film formation. FIGS. 5A-5C are DSC plots for compounds 3, 4 and 5, respectively, run under N2 at 10° C. per min. For clarity, the second and third trials of each cooling run and the third trial of each heating run is omitted for all species because the data is indistinguishable from previous runs. During the first heating trial of compound 4, an endothermic peak is clearly present in the plot with an onset occurring at 160° C. This was assumed to be the temperature where cleavage of the protecting group begins to occur and this is confirmed by the fact that this feature is not present in the second heating trial, which has a profile strongly resembling that of the heated NH Dimer 3 and further confirmed by bulk deprotection of compound 4 in an oven at 180° C. The first heating trial of compound 3 features a smooth, downward sloping line. […] This feature is due to a cold-crystallization and has previously been observed in similar molecules.
Thus, films were thermally annealed above this temperature (e.g., at 200° C.) to ensure the BOC protecting group was removed. Films of all three compounds 3-5 were studied.

[2] = Cyclic voltammetry in dichloromethane solution; type: physicochemical
Protocol: The electron affinity, 3.8 eV, and ionization potential, 5.8 eV, were determined from the onset of reduction (ca. −1.0V) and oxidation (ca. 1.0V), respectively, using a conversion value of 4.8. These values are similar to those of previously reported PDI dimers and indicate that compound 3 is suitable for use as an electron acceptor and transporting material in organic electronic devices. An analogous normalized CV plot of compound 4 is provided in FIG. 2B, where no oxidation is observed due to the electron withdrawing nature of the BOC group.
Cyclic Voltammetry (CV): All electrochemical measurements were performed using a CH Instruments potentiostat in a standard three-electrode configuration equipped with a silver wire pseudo-reference, platinum wire counter electrode and glassy carbon working electrode. The cyclic voltammetry experiments were performed in an anhydrous solution of dichloromethane (CH2Cl2) with ˜0.1 M tetrabutylammonium-hexafluorophosphate (TBAPF6) supporting electrolyte. Samples were scanned at a rate of 100 mV/s following a dry N2 purge to deoxygenate the solution, unless otherwise noted. Solution CV measurements were carried out with a sample concentration of ˜0.5 mg/mL in CH2Cl2, unless otherwise noted. Estimations of the energy levels were obtained by correlating the onset (Eox Fc/Fc+, Ered Fc/Fc+) to the normal hydrogen electrode (NHE), assuming a HOMO energy level of 4.80 eV for Fc/Fc+: E(HOMO)=−(Eox+4.80), E(LUMO)=−(Ered+4.80) UV-Visible Spectroscopy (UV/vis): All absorption measurements were recorded using an Agilent Technologies Cary 60 UV-vis spectrometer at room temperature. All solution UV/vis experiments were run in chloroform (CHCl3) using 2 mm quartz cuvettes and diluted 1% wt/v solutions, unless otherwise noted. Thin-films were prepared by spin-coating 1% wt/v solutions from CHCl3 onto Corning glass micro slides, unless otherwise noted. Prior to use, glass slides were cleaned with soap and water, acetone and isopropanol, and followed by UV/ozone treatment using a Novascan UV/ozone cleaning system.

physchem = conditions: organic solvent or mixture
[3] = Solubility in organic solvents; conditions: organic solvent or mixture

What does the source list for `CCC(CC)n1c(=O)c2ccc3c4c(-c5cc6c(=O)n(C(CC)CC)c(=O)c7cc8[nH]c9cc%10c(=O)n(C(CC)CC)c(=O)c%11ccc%12c5c(c67)c8c9c%12c%11%10)cc5c(=O)n(C(CC)CC)c(=O)c6cc7[nH]c8cc(c1=O)c2c3c8c7c4c56` [Compound 3, tPDI2N—H]?
decomposition temperature ([1]; TGA under N2 at 2° C. per min): above 390 °C; oxidation waves E1/2 ([2]; dichloromethane solution, hexafluorophosphate electrolyte): 1.1 V vs. Fc/Fc+; ionization potential ([2]; from onset of oxidation (ca. 1.0V), conversion value of 4.8): 5.8 eV; electron affinity ([2]; from onset of reduction (ca. -1.0V), conversion value of 4.8): 3.8 eV; solubility (physchem): ~5000 µg/mL (≈ 4.61 mM)

With `CCC(CC)n1c(=O)c2ccc3c4c(-c5cc6c(=O)n(C(CC)CC)c(=O)c7cc8c9c(c5c5ccc%10c(=O)n(C(CC)CC)c(=O)c%11cc(c9c5c%10%11)n8C(=O)OC(C)(C)C)c67)cc5c(=O)n(C(CC)CC)c(=O)c6cc7c(c4c56)c4c3c2c(cc4n7C(=O)OC(C)(C)C)c1=O` [Compound 4, tPDI2N—BOC] as the compound, how does the “onset of endothermic peak (cleavage of the protecting group begins)” value ([1]; DSC first heating trial, under N2 at 10° C. per min) read?
The value was 160 °C.

What about the “loss of the BOC group” value ([1]; TGA and DSC) of the same compound?
The value was roughly 170 °C.

For `CCCCCCn1c2cc3c(=O)n(C(CC)CC)c(=O)c4ccc5c6c(-c7cc8c(=O)n(C(CC)CC)c(=O)c9cc%10c%11c(c7c7ccc%12c(=O)n(C(CC)CC)c(=O)c%13cc(c%11c7c%12%13)n%10CCCCCC)c89)cc7c(=O)n(C(CC)CC)c(=O)c8cc1c(c6c78)c2c5c43` [Compound 5, tPDI2N-Hex], which solubility [3] is on record?
The solubility was greater than 50000 µg/mL.
